Test results as given in US20250352448A1, “COMPOSITION FOR IMPROVING SKIN CONDITIONS” (AJINOMOTO CO., INC., priority 2022, published 2025).

Test system: caspase-14
Experiment: caspase-14 production in amino acid-depleted epidermal keratinocytes (ELISA)
Format: cell-based
Settings: human skin-simulating medium 2, cultured 4 days
From the text: Culture media ([…] medium) used for cell culture contain amino acids necessary for cells to survive and grow. […] human skin-simulating medium 2: The essential amino acids in D-MEM (Life Technologies 21068-028) were changed to the concentrations shown in Table 10, human skin-simulating medium 2. […] The next day, the medium was replaced with the medium of evaluation condition (5)-(7). • Evaluation condition (5): Human skin-simulating medium 2 (hereinafter the sample evaluated under evaluation condition (5) is referred to as “Control 3”). • Evaluation condition (6): Medium obtained by adding His (final concentration 0.2 mM), Leu (final concentration 0.8 mM), Val (final concentration 0.8 mM) to human skin-simulating medium 2 (hereinafter the sample evaluated under evaluation condition (6) is referred to as “Example 3”). • Evaluation condition (7): Medium obtained by adding His (final concentration 0.2 mM) to human skin-simulating medium 2 (hereinafter the sample evaluated under evaluation condition (7) is referred to as “Example 4”). […] The protein extract of the above-mentioned 4 was diluted with water, and the protein was quantified using Micro BCA Protein Assay Kit (Thermo Fisher Scientific 23235). • 6. The amount of caspase-14 determined in the above-mentioned 4 was normalized by the amount of protein determined in the above-mentioned 5. • 7. […]

- amount of caspase-14 (normalized by protein amount, Control 3 as 100%) (Experimental Example 2-3, FIG. 3, final His 0.2, Leu 0.8, Val 0.8 mM or His 0.2 mM alone): remarkably increased
- amount of caspase-14 (normalized by protein amount, Control 7 as 100%) (Experimental Example 3-3-1, FIG. 6A, final His 0.2, Leu 0.8, Val 0.8 mM, Val 0.8 mM alone or His 0.2 mM alone): remarkably increased
SMILES: N[C@@H](Cc1c[nH]cn1)C(=O)O [His, histidine]
